Measured values published in US20230263822A1, “MODULATION OF FACTOR 11 EXPRESSION” (Ionis Pharmaceuticals, Inc., priority 2008, published 2023).

Experiment: Hematology assays in cynomolgus monkeys (Example 45)
Type: in vivo
Details: for MCH / MCHC / MCV / RBC count / WBC count / hematocrit / hemoglobin: escalating dose regimen
Outline: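 Cynomolgus monkeys (2 male, 3 female per group) dosed subcutaneously with antisense oligonucleotide or PBS, escalating 5, 10, then 25 mg/kg two to three times weekly over 12 weeks; one chronic group held at 10 mg/kg from week 4. Blood sampled weekly; necropsy on day 85.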

Question: What does the source list for “ISIS 416864: MOE gapmer, nucleobases 1275 to 1318 of SEQ ID NO: 1 (Table 8) (antisense GGCAGCGGACGGCATTGGTG; MOE gapmer, wing and gap sizes not given here)”?
Answer: MCH (Day 64): 23 pg; MCH (Day 71): 23 pg; MCH (Day 78): 23 pg; MCH (Day 85): 23 pg; basophils (day 8): 0.2%; eosinophils (day 8): 0.7%; lymphocytes (day 8): 45%; monocytes (day 8): 2.1%; neutrophils (day 8): 52%; platelet count (day 8): 438000 µL⁻¹; reticulocytes (day 8): 0.8%; MCH (day 8): 23 pg; MCHC (day 8): 29 g/dL; MCV (day 8): 78 fL; RBC count (day 8): 5.7e+06 µL⁻¹; WBC count (day 8): 11000 µL⁻¹; hematocrit (day 8): 44%; hemoglobin (day 8): 12.7 g/dL; basophils (day 15): 0.2%; eosinophils (day 15): 0.5%; lymphocytes (day 15): 38%; monocytes (day 15): 2.4%; neutrophils (day 15): 59%; platelet count (day 15): 439000 µL⁻¹; reticulocytes (day 15): 0.8%; MCH (day 15): 23 pg; MCHC (day 15): 30 g/dL; MCV (day 15): 74 fL; RBC count (day 15): 5.7e+06 µL⁻¹; WBC count (day 15): 10000 µL⁻¹; hematocrit (day 15): 42%; hemoglobin (day 15): 12.8 g/dL; basophils (day 22): 0.2%; eosinophils (day 22): 0.9%; lymphocytes (day 22): 37%; monocytes (day 22): 2.8%; neutrophils (day 22): 59%; platelet count (day 22): 364000 µL⁻¹; reticulocytes (day 22): 0.9%; MCH (day 22): 23 pg; MCHC (day 22): 29 g/dL; MCV (day 22): 79 fL; RBC count (day 22): 5.3e+06 µL⁻¹; WBC count (day 22): 10000 µL⁻¹; hematocrit (day 22): 42%; hemoglobin (day 22): 12.1 g/dL; basophils (day 29): 0.3%; eosinophils (day 29): 0.9%; lymphocytes (day 29): 51%; monocytes (day 29): 3.4%; neutrophils (day 29): 44%; platelet count (day 29): 397000 µL⁻¹; reticulocytes (day 29): 1.3%; MCH (day 29): 23 pg; MCHC (day 29): 29 g/dL; MCV (day 29): 80 fL; RBC count (day 29): 5.3e+06 µL⁻¹; WBC count (day 29): 10000 µL⁻¹; hematocrit (day 29): 43%; hemoglobin (day 29): 12.1 g/dL; basophils (day 36): 0.3%; eosinophils (day 36): 0.6%; lymphocytes (day 36): 38%; monocytes (day 36): 2.3%; neutrophils (day 36): 58%; platelet count (day 36): 428000 µL⁻¹; reticulocytes (day 36): 1.3%; MCH (day 36): 23 pg; MCHC (day 36): 30 g/dL; MCV (day 36): 76 fL; RBC count (day 36): 5.6e+06 µL⁻¹; WBC count (day 36): 10000 µL⁻¹; hematocrit (day 36): 42%; hemoglobin (day 36): 12.5 g/dL; basophils (day 43): 0.4%; eosinophils (day 43): 0.6%; lymphocytes (day 43): 39%; monocytes (day 43): 2.1%; neutrophils (day 43): 57%; platelet count (day 43): 351000 µL⁻¹; reticulocytes (day 43): 1.1%; MCH (day 43): 22 pg; MCHC (day 43): 29 g/dL; MCV (day 43): 77 fL; RBC count (day 43): 5.5e+06 µL⁻¹; WBC count (day 43): 10000 µL⁻¹; hematocrit (day 43): 42%; hemoglobin (day 43): 12.2 g/dL; basophils (day 50): 0.4%; eosinophils (day 50): 0.7%; lymphocytes (day 50): 46%; monocytes (day 50): 2.9%; neutrophils (day 50): 49%; platelet count (day 50): 419000 µL⁻¹; reticulocytes (day 50): 1.3%; MCH (day 50): 22 pg; MCHC (day 50): 28 g/dL; MCV (day 50): 79 fL; RBC count (day 50): 5.6e+06 µL⁻¹; WBC count (day 50): 12000 µL⁻¹; hematocrit (day 50): 44%; hemoglobin (day 50): 12.1 g/dL; basophils (day 57): 0.3%; eosinophils (day 57): 0.4%; lymphocytes (day 57): 39%; monocytes (day 57): 2.4%; neutrophils (day 57): 57%; platelet count (day 57): 409000 µL⁻¹; reticulocytes (day 57): 1.0%; MCH (day 57): 23 pg; MCHC (day 57): 29 g/dL; MCV (day 57): 77 fL; RBC count (day 57): 5.5e+06 µL⁻¹; WBC count (day 57): 12000 µL⁻¹; hematocrit (day 57): 42%; hemoglobin (day 57): 12.3 g/dL; basophils (day 64): 0.4%; eosinophils (day 64): 0.7%; lymphocytes (day 64): 46%; monocytes (day 64): 2.8%; neutrophils (day 64): 49%; platelet count (day 64): 383000 µL⁻¹; reticulocytes (day 64): 0.8%; MCHC (day 64): 29 g/dL; MCV (day 64): 75 fL; RBC count (day 64): 5.6e+06 µL⁻¹; WBC count (day 64): 11000 µL⁻¹; hematocrit (day 64): 42%; hemoglobin (day 64): 12.1 g/dL; basophils (day 71): 0.4%; eosinophils (day 71): 1.1%; lymphocytes (day 71): 52%; monocytes (day 71): 3.7%; neutrophils (day 71): 42%; platelet count (day 71): 394000 µL⁻¹; reticulocytes (day 71): 1.0%; MCHC (day 71): 28 g/dL; MCV (day 71): 79 fL; RBC count (day 71): 5.6e+06 µL⁻¹; WBC count (day 71): 14000 µL⁻¹; hematocrit (day 71): 44%; hemoglobin (day 71): 12.2 g/dL; basophils (day 78): 0.3%; eosinophils (day 78): 1.2%; lymphocytes (day 78): 46%; monocytes (day 78): 3.7%; neutrophils (day 78): 48%; platelet count (day 78): 366000 µL⁻¹; reticulocytes (day 78): 1.2%; MCHC (day 78): 30 g/dL; MCV (day 78): 74 fL; RBC count (day 78): 5.3e+06 µL⁻¹; WBC count (day 78): 11000 µL⁻¹; hematocrit (day 78): 39%; hemoglobin (day 78): 11.9 g/dL; basophils (day 85): 0.4%; eosinophils (day 85): 1.6%; lymphocytes (day 85): 54%; monocytes (day 85): 3.7%; neutrophils (day 85): 39%; platelet count (day 85): 387000 µL⁻¹; reticulocytes (day 85): 1.5%; MCHC (day 85): 30 g/dL; MCV (day 85): 74 fL; RBC count (day 85): 5.4e+06 µL⁻¹; WBC count (day 85): 12000 µL⁻¹; hematocrit (day 85): 40%; hemoglobin (day 85): 12.3 g/dL; basophils (day −5): 0.2%; eosinophils (day −5): 0.9%; lymphocytes (day −5): 44%; monocytes (day −5): 3.3%; neutrophils (day −5): 51%; platelet count (day −5): 456000 µL⁻¹; reticulocytes (day −5): 0.9%; MCH (day −5): 23 pg; MCHC (day −5): 29 g/dL; MCV (day −5): 79 fL; RBC count (day −5): 5.6e+06 µL⁻¹; WBC count (day −5): 13000 µL⁻¹; hematocrit (day −5): 44%; hemoglobin (day −5): 13.0 g/dL; basophils (day −14): 0.2%; eosinophils (day −14): 1.0%; lymphocytes (day −14): 42%; monocytes (day −14): 2.8%; neutrophils (day −14): 53%; platelet count (day −14): 434000 µL⁻¹; reticulocytes (day −14): 0.9%; MCH (day −14): 23 pg; MCHC (day −14): 29 g/dL; MCV (day −14): 79 fL; RBC count (day −14): 5.5e+06 µL⁻¹; WBC count (day −14): 13000 µL⁻¹; hematocrit (day −14): 43%; hemoglobin (day −14): 12.7 g/dL
